Patent US4562006A, “Cycloheptadiene derivatives” (Warner-Lambert Company, priority 1984, dated 1985)

Key:
leukotriene receptor = leukotriene receptor binding assay (RBL-1)
Text: The details of the human leukocyte lipoxygenase assay are described below. The soybean lipoxygenase radiochemical is described in Prostaglandins, Leukotrienes, and Medicine, 11, 373-80 (1983). The leukotriene receptor binding assay is described by R. F. Bruns, W. J. Thomsen, and T. A. Pugsley in Life Sciences, 33, 645 (1983).
The following tables illustrate the activity of certain representative compounds of the present invention. The RBL-1 column represent data from the leukotriene receptor binding assay and the LDA(U) column reports on the human leukoxyte lipoxygenase assay.

[1] = target: human leukocyte lipoxygenase; assay: human leukocyte lipoxygenase assay (LDA); assay type: biochemical; conditions: LDA column
Procedure: An acetone-pentane powder of leukocyte and platelets was prepared from buffy coat obtained from the Michigan Red Cross and Michigan Department of Health in Lansing, Michigan, and was suspended in 5-7 volumes of cold 0.1M tris buffer, pH 7.4 containing 0.154 M NaCl. The suspension was centrifuged at 13,300 g for ten minutes at 4° C. The resultant pellet was retained, resuspended in five volumes of cold acetone, recentrifuged at 13,300 g and resuspended in five volumes of cold pentane. The pentane suspension was centrifuged for ten minutes at 13,300 g to give a pellet which was dried in the cold under vacuum with periodic pulverization. The dry powder is stable for several weeks when stored at -80° C.
This was prepared in the following manner. About 15 mg of the acetone-pentane powder is suspended in 4 ml of cold tris buffer (0.1M, pH 7.4), allowed to stand for five minutes and homogenized thoroughly. The homogenate is sonicated three times for 15 seconds each time, diluted to 7 ml with cold tris buffer (0.1M, pH 7.4) and centrifuged at 4° for 60 minutes at 13,300 g. The supernatant is retained and diluted to a total of 10 ml with cold tris buffer (0.1M, pH 7.4) to give the stock enzyme solution. […]
The enzyme reaction is followed spectrophotometrically by the appearance of a conjugated diene product at 234 nm. The reaction is monitored at 24° using a Gilford Model 2500 spectrophotometer. […]

| Structure (SMILES) | IC50 (leukotriene receptor) [µM] | IC50 [1] [µM] |
| --- | --- | --- |
| CCCCC/C=C\C1C=CCC=CC1CCCC(=O)O (stereo not shown) [Example 14, 2,5-cycloheptadiene-1-butanoic acid, 7-(1-heptenyl)-, (Z)-] | 53.4 |  |
| CCCCC/C=C\C1C=CCCC=C1/C=C\CCCC(=O)O (stereo not shown) [Example 18, 5-Hexenoic acid, 6-[7-(1-heptenyl)-1,5-cycloheptadien-1-yl]-] | 17.1 |  |
| CCCCC/C=C\C=C\C1CC1/C=C\CCCC(=O)O (stereo not shown) [Example 13, 6-[2-(1,3-nonadienyl)cyclopropyl]-5-hexenoic acid (Z,E,Z)] | 26.4 |  |
| CCCCC/C=C\C1C=CCC=CC1CCCCCC(=O)O (stereo not shown) [Example 12, 2,5-Cycloheptadiene-1-hexanoic acid, 7-(1-heptenyl)-(Z)-] | 26.4 | 0.74 |

Next, values leading:

| IC50 (leukotriene receptor) [µM] | IC50 [1] [µM] | Structure (SMILES) |
| --- | --- | --- |
| 10.3 |  | CCCCC/C=C\C=C\C1CC1/C=C\CCCCCC(=O)O (stereo not shown) [Example 11, 7-Octenoic acid, 8-[2-(1,3-nonadienyl)cyclopropyl]-, (Z,E,Z)] |
| 23.9 |  | CCCCCCCC1C=CCC=CC1/C=C\CCCC(=O)O (stereo not shown) [Example 6, 5-Hexenoic acid, 6-(7-heptyl-2,5-cycloheptadien-1-yl)-] |
